Results published in ChEMBL document CHEMBL3792365, “Dioxol and dihydrodioxin analogs of 2- and 3-phenylacetonitriles as potent anti-cancer agents with nanomolar activity against a variety of human cancer cells” (2016).

Columns and labels:
Assay type in all cases: functional
[1] = Growth inhibition of human Hs 578T cells at 10 uM after 48 hrs by sulforhodamine B assay; conditions: values are per cent of control
[2] = Growth inhibition of human OVCAR4 cells at 10 uM after 48 hrs by sulforhodamine B assay; conditions: OVCAR-4, 48 h, values are per cent of control
A498 = test: Growth inhibition of human A498 cells at 10 uM after 48 hrs by sulforhodamine B assay; conditions: A498, 48 h, values are per cent of control
A549 = test: Growth inhibition of human A549/ATCC cells at 10 uM after 48 hrs by sulforhodamine B assay; conditions: A549, 48 h, values are per cent of control
[3] = Growth inhibition of human DU145 cells at 10 uM after 48 hrs by sulforhodamine B assay; conditions: DU-145, 48 h, values are per cent of control
NCI-H460 = test: Growth inhibition of human NCI-H460 cells at 10 uM after 48 hrs by sulforhodamine B assay; conditions: NCI-H460, 48 h, values are per cent of control
SN12C = test: Growth inhibition of human SN12C cells at 10 uM after 48 hrs by sulforhodamine B assay; conditions: values are per cent of control
NCI-H226 = test: Growth inhibition of human NCI-H226 cells at 10 uM after 48 hrs by sulforhodamine B assay; conditions: NCI-H226, 48 h, values are per cent of control
[4] = Growth inhibition of human SF295 cells at 10 uM after 48 hrs by sulforhodamine B assay; conditions: SF-295, 48 h, values are per cent of control
[5] = Growth inhibition of human UO31 cells at 10 uM after 48 hrs by sulforhodamine B assay; conditions: UO-31, 48 h, values are per cent of control
[6] = Growth inhibition of human OVCAR5 cells at 10 uM after 48 hrs by sulforhodamine B assay; conditions: OVCAR-5, 48 h, values are per cent of control
K562 = test: Growth inhibition of human K562 cells at 10 uM after 48 hrs by sulforhodamine B assay; conditions: K562, 48 h, values are per cent of control
SK-MEL-2 = test: Growth inhibition of human SK-MEL-2 cells at 10 uM after 48 hrs by sulforhodamine B assay; conditions: SK-MEL-2, 48 h, values are per cent of control
MDA-MB-435 = test: Growth inhibition of human MDA-MB-435 cells at 10 uM after 48 hrs by sulforhodamine B assay; conditions: MDA-MB-435, 48 h, values are per cent of control
[7] = Growth inhibition of human HCT15 cells at 10 uM after 48 hrs by sulforhodamine B assay; conditions: HCT-15, 48 h, values are per cent of control
786-0 = test: Growth inhibition of human 786-0 cells at 10 uM after 48 hrs by sulforhodamine B assay; conditions: 786-0, 48 h, values are per cent of control
SR = test: Growth inhibition of human SR cells at 10 uM after 48 hrs by sulforhodamine B assay; conditions: values are per cent of control
[8] = Growth inhibition of human IGROV1 cells at 10 uM after 48 hrs by sulforhodamine B assay; conditions: IGROV-1, 48 h, values are per cent of control
NCI-H23 = test: Growth inhibition of human NCI-H23 cells at 10 uM after 48 hrs by sulforhodamine B assay; conditions: NCI-H23, 48 h, values are per cent of control
[9] = Growth inhibition of human HCT116 cells at 10 uM after 48 hrs by sulforhodamine B assay; conditions: HCT-116, 48 h, values are per cent of control
[10] = Growth inhibition of human HOP62 cells at 10 uM after 48 hrs by sulforhodamine B assay; conditions: HOP-62, 48 h, values are per cent of control
SK-MEL-28 = test: Growth inhibition of human SK-MEL-28 cells at 10 uM after 48 hrs by sulforhodamine B assay; conditions: SK-MEL-28, 48 h, values are per cent of control
[11] = Growth inhibition of human UACC62 cells at 10 uM after 48 hrs by sulforhodamine B assay; conditions: UACC-62, 48 h, values are per cent of control
SK-MEL-5 = test: Growth inhibition of human SK-MEL-5 cells at 10 uM after 48 hrs by sulforhodamine B assay; conditions: SK-MEL-5, 48 h, values are per cent of control
ACHN = test: Growth inhibition of human ACHN cells at 10 uM after 48 hrs by sulforhodamine B assay; conditions: values are per cent of control
[12] = Growth inhibition of human SNB19 cells at 10 uM after 48 hrs by sulforhodamine B assay; conditions: SNB-19, 48 h, values are per cent of control
NCI-H322M = test: Growth inhibition of human NCI-H322M cells at 10 uM after 48 hrs by sulforhodamine B assay; conditions: values are per cent of control
[13] = Growth inhibition of human BT549 cells at 10 uM after 48 hrs by sulforhodamine B assay; conditions: BT-549, 48 h, values are per cent of control
[14] = Growth inhibition of human LOXIMVI cells at 10 uM after 48 hrs by sulforhodamine B assay; conditions: LOX IMVI, values are per cent of control
[15] = Growth inhibition of human COLO205 cells at 10 uM after 48 hrs by sulforhodamine B assay; conditions: COLO 205, 48 h, values are per cent of control
[16] = Growth inhibition of human SW620 cells at 10 uM after 48 hrs by sulforhodamine B assay; conditions: SW-620, 48 h, values are per cent of control
[17] = Growth inhibition of human RXF393 cells at 10 uM after 48 hrs by sulforhodamine B assay; conditions: RXF 393, 48 h, values are per cent of control
MDA-MB-231 = test: Growth inhibition of human MDA-MB-231 cells at 10 uM after 48 hrs by sulforhodamine B assay; conditions: MDA-MB-231, 48 h, values are per cent of control
[18] = Growth inhibition of human Caki1 cells at 10 uM after 48 hrs by sulforhodamine B assay; conditions: CAKI-1, 48 h, values are per cent of control
M14 = test: Growth inhibition of human M14 cells at 10 uM after 48 hrs by sulforhodamine B assay; conditions: M14, 48 h, values are per cent of control
[19] = Growth inhibition of human SF539 cells at 10 uM after 48 hrs by sulforhodamine B assay; conditions: SF-539, 48 h, values are per cent of control
[20] = Growth inhibition of human OVCAR8 cells at 10 uM after 48 hrs by sulforhodamine B assay; conditions: OVCAR-8, 48 h, values are per cent of control
HT-29 = test: Growth inhibition of human HT-29 cells at 10 uM after 48 hrs by sulforhodamine B assay; conditions: HT-29, 48 h, values are per cent of control
KM12 = test: Growth inhibition of human KM12 cells at 10 uM after 48 hrs by sulforhodamine B assay; conditions: KM12, 48 h, values are per cent of control
[21] = Growth inhibition of human SNB75 cells at 10 uM after 48 hrs by sulforhodamine B assay; conditions: SNB-75, 48 h, values are per cent of control

With `COc1ccc(/C=C(\C#N)c2ccc3c(c2)OCO3)cc1OC` the growth, % of control at 10 µM [1] was 114%, the growth, % of control at 10 µM [2] was 110% and the growth, % of control at 10 µM (A498) was 96.5%. The growth, % of control at 10 µM (A549) was 96.6%, the growth, % of control at 10 µM [3] was 104% and the growth, % of control at 10 µM (NCI-H460) was 106%. For the same compound, the growth, % of control at 10 µM (SN12C) was 103%, the growth, % of control at 10 µM (NCI-H226) was 114% and the growth, % of control at 10 µM [4] was 105%. The growth, % of control at 10 µM [5] was 88%, the growth, % of control at 10 µM [6] was 104% and the growth, % of control at 10 µM (K562) was 94.8%. The growth, % of control at 10 µM (SK-MEL-2) was 102%, the growth, % of control at 10 µM (MDA-MB-435) was 96.1% and the growth, % of control at 10 µM [7] was 99.8%. For the same compound, the growth, % of control at 10 µM (786-0) was 103%, the growth, % of control at 10 µM (SR) was 83% and the growth, % of control at 10 µM [8] was 96.9%. The growth, % of control at 10 µM (NCI-H23) was 97.1%, the growth, % of control at 10 µM [9] was 105% and the growth, % of control at 10 µM [10] was 97.6%. For the same compound, the growth, % of control at 10 µM (SK-MEL-28) was 116%, the growth, % of control at 10 µM [11] was 114% and the growth, % of control at 10 µM (SK-MEL-5) was 103%. For the same compound, the growth, % of control at 10 µM (ACHN) was 111%, the growth, % of control at 10 µM [12] was 105% and the growth, % of control at 10 µM (NCI-H322M) was 96.8%. It also gave a growth, % of control at 10 µM [13] of 91.8%, a growth, % of control at 10 µM [14] of 101% and a growth, % of control at 10 µM [15] of 106%. It also gave a growth, % of control at 10 µM [16] of 107%, a growth, % of control at 10 µM [17] of 111% and a growth, % of control at 10 µM (MDA-MB-231) of 106%. It also gave a growth, % of control at 10 µM [18] of 102%, a growth, % of control at 10 µM (M14) of 106% and a growth, % of control at 10 µM [19] of 103%. It also gave a growth, % of control at 10 µM [20] of 104%, a growth, % of control at 10 µM (HT-29) of 106% and a growth, % of control at 10 µM (KM12) of 96.2%. It also gave a growth, % of control at 10 µM [21] of 87.5%.

Work on `COc1ccc(/C(C#N)=C/c2ccc3c(c2)OCO3)cc1` yielded a growth, % of control at 10 µM [1] of 92.4%, a growth, % of control at 10 µM [2] of 76.4% and a growth, % of control at 10 µM (A498) of 63.3%. For the same compound, the growth, % of control at 10 µM (A549) was 71.2%, the growth, % of control at 10 µM [3] was 95% and the growth, % of control at 10 µM (NCI-H460) was 64.3%. It also gave a growth, % of control at 10 µM (SN12C) of 84.3%, a growth, % of control at 10 µM (NCI-H226) of 86.6% and a growth, % of control at 10 µM [4] of 80.8%. It also gave a growth, % of control at 10 µM [5] of 72.8%, a growth, % of control at 10 µM [6] of 93.9% and a growth, % of control at 10 µM (K562) of 37.9%. For the same compound, the growth, % of control at 10 µM (SK-MEL-2) was 90.1%, the growth, % of control at 10 µM (MDA-MB-435) was 77.9% and the growth, % of control at 10 µM [7] was 59%. For the same compound, the growth, % of control at 10 µM (786-0) was 95.4%, the growth, % of control at 10 µM (SR) was 39.3% and the growth, % of control at 10 µM [8] was 84.6%. The growth, % of control at 10 µM (NCI-H23) was 96.1%, the growth, % of control at 10 µM [9] was 64.9% and the growth, % of control at 10 µM [10] was 86.6%. For the same compound, the growth, % of control at 10 µM (SK-MEL-28) was 81.4%, the growth, % of control at 10 µM [11] was 69.2% and the growth, % of control at 10 µM (SK-MEL-5) was 91.4%. The growth, % of control at 10 µM (ACHN) was 95.3%, the growth, % of control at 10 µM [12] was 49.4% and the growth, % of control at 10 µM (NCI-H322M) was 94.7%. The growth, % of control at 10 µM [13] was 74.7%, the growth, % of control at 10 µM [14] was 102% and the growth, % of control at 10 µM [15] was 76.2%. The growth, % of control at 10 µM [16] was 84.9%, the growth, % of control at 10 µM [17] was 91.4% and the growth, % of control at 10 µM (MDA-MB-231) was 68.7%. The growth, % of control at 10 µM [18] was 78.2%, the growth, % of control at 10 µM (M14) was 10.4% and the growth, % of control at 10 µM [19] was 83.7%. The growth, % of control at 10 µM [20] was 94.7%, the growth, % of control at 10 µM (HT-29) was 64.5% and the growth, % of control at 10 µM (KM12) was 63.6%. The growth, % of control at 10 µM [21] was 80.8%.
